The source of these data is PMC7509988 (2018).

What is called KD is the equilibrium constant for the complex coming apart. Lower therefore signals higher affinity.

For this assay, the system named is E2 aptamer (DNA, aptamer) AAGGGATGCCGTTTGGGCCCAAGTTCGGCATAGTG
Nature of the assay: graphene field-effect transistor. Particulars: 0.05 × PBS; pH 7.4, 5% DMSO, no interference; 4.67 nM with pH variation 6.5-8.0.

Take `C[C@]12CC[C@@H]3c4ccc(O)cc4CC[C@H]3[C@@H]1CC[C@@H]2O`: the KD was 4.21 nM.
